Measured values from US20240269139A1, “COMPOUNDS FOR TARGETED PROTEIN DEGRADATION OF KINASES” (DANA-FARBER CANCER INSTITUTE, INC., priority 2020, published 2024).
Where two headings read alike, the source gives them in different places.

How the values were obtained:
Format in all cases: cell-based
[1] = target: protein kinases (human kinome) (Homo sapiens, UniProt P49137)
[2] = target: T1, protein kinases (human kinome) (Homo sapiens, UniProt O95835); conditions: LATS1 O95835
T1 sequence (O95835 1-1130): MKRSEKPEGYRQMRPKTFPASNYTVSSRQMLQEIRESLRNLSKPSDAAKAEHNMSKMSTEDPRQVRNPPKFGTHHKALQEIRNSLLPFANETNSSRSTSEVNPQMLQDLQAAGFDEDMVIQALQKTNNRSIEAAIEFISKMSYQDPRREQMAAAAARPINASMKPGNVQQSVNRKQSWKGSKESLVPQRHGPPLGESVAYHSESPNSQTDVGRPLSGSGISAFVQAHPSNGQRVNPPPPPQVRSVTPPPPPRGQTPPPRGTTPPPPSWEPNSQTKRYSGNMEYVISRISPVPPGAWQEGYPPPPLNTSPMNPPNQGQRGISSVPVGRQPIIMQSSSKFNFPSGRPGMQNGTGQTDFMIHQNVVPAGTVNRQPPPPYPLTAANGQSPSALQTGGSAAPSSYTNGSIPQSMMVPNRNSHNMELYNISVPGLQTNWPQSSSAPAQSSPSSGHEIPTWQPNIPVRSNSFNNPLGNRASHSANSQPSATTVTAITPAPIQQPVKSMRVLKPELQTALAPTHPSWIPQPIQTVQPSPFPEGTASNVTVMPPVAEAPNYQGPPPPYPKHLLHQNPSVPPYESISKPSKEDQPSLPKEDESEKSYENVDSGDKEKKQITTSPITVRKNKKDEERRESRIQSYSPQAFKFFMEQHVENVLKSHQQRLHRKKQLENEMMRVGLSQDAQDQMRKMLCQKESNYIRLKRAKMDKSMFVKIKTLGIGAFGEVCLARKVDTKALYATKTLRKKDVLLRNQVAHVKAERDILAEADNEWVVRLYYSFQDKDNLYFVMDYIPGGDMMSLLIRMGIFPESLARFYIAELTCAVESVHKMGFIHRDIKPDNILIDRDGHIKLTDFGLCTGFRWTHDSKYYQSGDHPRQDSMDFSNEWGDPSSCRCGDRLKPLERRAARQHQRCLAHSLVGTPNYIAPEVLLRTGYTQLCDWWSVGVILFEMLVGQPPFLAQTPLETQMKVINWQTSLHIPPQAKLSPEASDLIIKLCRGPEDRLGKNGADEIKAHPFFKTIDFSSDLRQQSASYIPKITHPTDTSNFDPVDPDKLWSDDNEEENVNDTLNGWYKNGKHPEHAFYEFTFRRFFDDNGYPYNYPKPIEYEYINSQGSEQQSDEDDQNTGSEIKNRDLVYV

[3] = target: protein kinases (human kinome) (Homo sapiens, UniProt P35790); conditions: CHKA P35790
protein kinases (human kinome) (Homo sapiens, UniProt P35790), sequence (P35790 whole entry): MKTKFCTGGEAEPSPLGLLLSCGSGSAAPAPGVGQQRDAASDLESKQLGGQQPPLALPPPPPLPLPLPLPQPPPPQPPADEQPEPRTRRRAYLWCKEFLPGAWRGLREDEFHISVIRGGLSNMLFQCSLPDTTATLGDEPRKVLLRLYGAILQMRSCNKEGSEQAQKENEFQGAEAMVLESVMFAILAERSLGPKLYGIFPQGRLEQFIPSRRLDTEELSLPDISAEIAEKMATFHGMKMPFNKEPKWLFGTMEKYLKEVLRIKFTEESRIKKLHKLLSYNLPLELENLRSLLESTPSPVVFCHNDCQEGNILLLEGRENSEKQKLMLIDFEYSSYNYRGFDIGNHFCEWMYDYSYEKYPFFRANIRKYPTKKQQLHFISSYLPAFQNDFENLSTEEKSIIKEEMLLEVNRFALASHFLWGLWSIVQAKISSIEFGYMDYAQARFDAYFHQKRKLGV

[4] = target: T2, protein kinases (human kinome) (Homo sapiens, UniProt Q8IVH8); conditions: for logFC: MAP4K3 Q8IVH8; for logFC MAP4K3: MAP4K3 Q81VH8
T2 sequence (Q8IVH8 1-894): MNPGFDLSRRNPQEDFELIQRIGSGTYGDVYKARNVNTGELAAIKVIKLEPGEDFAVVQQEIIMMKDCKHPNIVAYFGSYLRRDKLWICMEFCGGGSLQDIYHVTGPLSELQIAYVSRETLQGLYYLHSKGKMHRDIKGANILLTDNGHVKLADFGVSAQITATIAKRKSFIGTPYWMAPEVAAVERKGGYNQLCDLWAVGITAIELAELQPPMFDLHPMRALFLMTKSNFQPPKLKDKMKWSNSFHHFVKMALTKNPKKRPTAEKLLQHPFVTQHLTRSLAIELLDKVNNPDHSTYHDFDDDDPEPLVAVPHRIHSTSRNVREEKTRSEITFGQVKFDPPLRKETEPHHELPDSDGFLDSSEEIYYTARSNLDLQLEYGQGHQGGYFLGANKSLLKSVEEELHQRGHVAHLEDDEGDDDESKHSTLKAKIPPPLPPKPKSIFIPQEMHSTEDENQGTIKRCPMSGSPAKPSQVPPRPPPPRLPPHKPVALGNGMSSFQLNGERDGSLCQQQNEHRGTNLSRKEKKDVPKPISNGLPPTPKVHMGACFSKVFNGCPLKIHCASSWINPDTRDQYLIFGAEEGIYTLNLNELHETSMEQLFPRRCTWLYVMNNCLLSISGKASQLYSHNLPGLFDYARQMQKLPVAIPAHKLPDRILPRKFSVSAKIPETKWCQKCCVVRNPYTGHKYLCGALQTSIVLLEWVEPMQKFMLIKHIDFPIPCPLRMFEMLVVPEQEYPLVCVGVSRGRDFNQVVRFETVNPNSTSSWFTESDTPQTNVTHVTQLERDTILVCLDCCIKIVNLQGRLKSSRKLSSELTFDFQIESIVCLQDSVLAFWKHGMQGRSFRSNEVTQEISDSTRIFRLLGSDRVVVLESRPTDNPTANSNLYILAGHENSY

[5] = target: protein kinases (human kinome) (Homo sapiens, UniProt O94921); conditions: for logFC: CDK14 (O94921-1), experiment wp172; for logFC of CDK14 (O94921-1): Experiment wp172
protein kinases (human kinome) (Homo sapiens, UniProt O94921), sequence (O94921 whole entry): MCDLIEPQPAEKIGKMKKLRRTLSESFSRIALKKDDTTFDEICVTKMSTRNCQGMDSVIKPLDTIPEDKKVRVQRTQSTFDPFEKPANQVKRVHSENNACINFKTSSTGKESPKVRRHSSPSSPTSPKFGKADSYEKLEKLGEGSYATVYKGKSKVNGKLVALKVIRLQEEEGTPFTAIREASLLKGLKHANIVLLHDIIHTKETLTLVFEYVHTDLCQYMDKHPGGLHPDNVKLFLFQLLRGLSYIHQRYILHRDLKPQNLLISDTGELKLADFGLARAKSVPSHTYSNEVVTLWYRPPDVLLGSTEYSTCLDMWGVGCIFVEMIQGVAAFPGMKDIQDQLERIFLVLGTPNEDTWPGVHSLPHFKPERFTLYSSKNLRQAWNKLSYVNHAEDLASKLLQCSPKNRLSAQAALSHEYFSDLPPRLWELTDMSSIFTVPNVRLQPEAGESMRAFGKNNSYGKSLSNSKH

[6] = Accession P49137, experiment wp168, direction down
[7] = MAPKAPK2 (P49137), experiment wp168

protein kinases (human kinome) (Homo sapiens, UniProt P49137), sequence (P49137 whole entry): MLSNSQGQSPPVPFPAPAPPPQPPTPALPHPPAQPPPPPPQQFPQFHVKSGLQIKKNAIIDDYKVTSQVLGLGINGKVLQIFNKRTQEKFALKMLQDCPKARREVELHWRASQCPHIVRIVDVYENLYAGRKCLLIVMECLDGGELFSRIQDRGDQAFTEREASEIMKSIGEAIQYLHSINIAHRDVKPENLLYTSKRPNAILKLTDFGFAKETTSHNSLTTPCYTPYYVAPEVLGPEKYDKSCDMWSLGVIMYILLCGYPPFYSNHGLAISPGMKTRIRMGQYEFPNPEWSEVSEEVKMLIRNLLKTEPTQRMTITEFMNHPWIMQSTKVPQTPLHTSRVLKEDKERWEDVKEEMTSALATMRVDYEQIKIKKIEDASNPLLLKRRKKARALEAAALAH

Structure (SMILES): Cc1ccc(NC(=O)c2cccc(C(F)(F)F)c2)cc1N1Cc2cnc(Nc3ccc(N4CCN(Cc5cn(CCCCCOc6cccc7c6C(=O)N(C6CCC(=O)NC6=O)C7=O)nn5)CC4)nc3)nc2N(C)C1=O (stereo not shown) [DB0646, N-(3-(7-((6-(4-((1-(5-((2-(2,6-Dioxopiperidin-3-yl)-1,3-dioxoisoindolin-4-yl)oxy)pentyl)-1H-1,2,3-triazol-4-yl)methyl)piperazin-1-v)pyridin-3-yl)amino)-1-methyl-2-oxo-1,4-dihydropyrimido[4,5-d]pyrimidin-3(2H)-yl)-4-methylphenyl)-3-(trifluoromethyl)benzamide]
- logFC MAPKAPK2 ([1]; Accession P49137, experiment wp045, direction down): −0.4334
- logFC MAPKAPK2 ([1]; Accession P49137, experiment wp105, direction down): −0.4562
- logFC MAPKAPK2 ([1]; Accession P49137, experiment wp107, direction down): −0.3734
- logFC MAPKAPK2 ([1]; Accession P49137, experiment wp114, direction down): −0.4911
- logFC MAPKAPK2 ([1]; Accession P49137, experiment wp117, direction down): −0.4333
- logFC MAPKAPK2 ([1]; Accession P49137, experiment wp152, direction down): −0.4223
- logFC MAPKAPK2 ([1]; Accession P49137, experiment wp160, 4 hr, direction down): −0.3444
- logFC MAPKAPK2 ([1]; Accession P49137, experiment wp160, 8 hr, direction down): −0.6227
- logFC MAPKAPK2 ([1]; Accession P49137, experiment wp172, direction down): −0.3294
- logFC MAPKAPK2 ([1]; MAPKAPK2 (P49137), experiment wp045): −0.4334
- logFC MAPKAPK2 ([1]; MAPKAPK2 (P49137), experiment wp105): −0.4562
- logFC MAPKAPK2 ([1]; MAPKAPK2 (P49137), experiment wp107): −0.3734
- logFC MAPKAPK2 ([1]; MAPKAPK2 (P49137), experiment wp114): −0.4911
- logFC MAPKAPK2 ([1]; MAPKAPK2 (P49137), experiment wp117): −0.4333
- logFC MAPKAPK2 ([1]; MAPKAPK2 (P49137), experiment wp152): −0.4223
- logFC MAPKAPK2 ([1]; MAPKAPK2 (P49137), experiment wp160, 4 hr): −0.3444
- logFC MAPKAPK2 ([1]; MAPKAPK2 (P49137), experiment wp160, 8 hr): −0.6227
- logFC MAPKAPK2 ([1]; MAPKAPK2 (P49137), experiment wp172): −0.3294
- logFC ([2]; experiment wp160, 8 hr): −0.3382
- logFC LATS1 ([2]; experiment wp160, 8 hr): −0.3382
- logFC ([3]; experiment wp152): −0.3979
- logFC ([3]; experiment wp160, 8 hr): −0.4303

Structure (SMILES): Cc1ccc(NC(=O)c2cccc(C(F)(F)F)c2)cc1N1Cc2cnc(Nc3ccc(N4CCN(CCCOc5cccc6c5C(=O)N(C5CCC(=O)NC5=O)C6=O)CC4)nc3)nc2N(C)C1=O (stereo not shown) [DB0662]
- logFC MAPKAPK2 [1, 6]: −0.331
- logFC MAPKAPK2 [1, 7]: −0.331
- logFC ([3]; experiment wp168): −0.3222

Structure (SMILES): Cc1ccc(NC(=O)c2cccc(C(F)(F)F)c2)cc1N1Cc2cnc(Nc3ccc(N4CCN(CCCCC(=O)N[C@H](C(=O)N5C[C@H](O)C[C@H]5C(=O)N[C@@H](C)c5ccc(-c6scnc6C)cc5)C(C)(C)C)CC4)nc3)nc2N(C)C1=O [DB1113]
- logFC ([4]; experiment wp168): −1.385
- logFC MAP4K3 ([4]; experiment wp168): −1.385
- logFC MAPKAPK2 [1, 6]: −3.201
- logFC MAPKAPK2 [1, 7]: −3.201

Structure (SMILES): Cc1ncsc1-c1ccc([C@H](C)NC(=O)[C@@H]2C[C@@H](O)CN2C(=O)[C@@H](NC(=O)CCOCCOCCN2CCN(c3ccc(Nc4ncc(Cl)c(Nc5ccccc5S(=O)(=O)C(C)C)n4)cc3)CC2)C(C)(C)C)cc1 [FMF.06.098.1]
- logFC ([4]; experiment wp108): −0.814
- logFC ([4]; experiment wp114): −0.4146
- logFC ([4]; experiment wp131): −0.7898
- logFC MAP4K3 ([4]; experiment wp108): −0.814
- logFC MAP4K3 ([4]; experiment wp114): −0.4146
- logFC MAP4K3 ([4]; experiment wp131): −0.7898
- logFC ([3]; experiment wp108): −0.3716
- logFC ([3]; experiment wp131): −0.4457

Structure (SMILES): Cc1ncsc1-c1ccc([C@H](C)NC(=O)[C@@H]2C[C@@H](O)CN2C(=O)[C@@H](NC(=O)CCCCCN2CCN(c3ccc(Nc4ncc5scc(-c6cccc(NS(C)(=O)=O)c6)c5n4)cc3)CC2)C(C)(C)C)cc1 [RSS0680, (2S,4R)-1-((S)-3,3-Dimethyl-2-(6-(4-(4-((7-(3-(methylsulfonamido)phenyl)thieno[3,2-d]pyrimidin-2-yl)amino)phenyl)piperazin-1-yl)hexanamido)butanoyl)-4-hydroxy-N—((S)-1-(4-(4-methylthiazol-5yl)phenyl)ethyl)pyrrolidine-2-carboxamide]
- logFC ([2]; experiment wp117): −0.4143
- logFC LATS1 ([2]; experiment wp117): −0.4143

Structure (SMILES): Nc1ncnc2c1c(-c1ccc(Oc3ccccc3)cc1)nn2[C@H]1CC[C@H](N2CCN(CCOCCNC(=O)CNc3cccc4c3C(=O)N(C3CCC(=O)NC3=O)C4=O)CC2)CC1 (stereo partly shown) [SB1.G.181]
- logFC ([2]; experiment wp071): −1.273
- logFC LATS1 ([2]; experiment wp071): −1.273

Structure (SMILES): Cc1ccc(C(=O)Nc2ccc(CN3CCN(CCCOCCOCCOCCNC(=O)COc4cccc5c4C(=O)N(C4CCC(=O)NC4=O)C5=O)CC3)c(C(F)(F)F)c2)cc1C#Cc1cnc2cccnn12 (stereo not shown) [SB1.G.187]
- logFC [5]: −1.525
- logFC of CDK14 (O94921-1) [5]: −1.525

Structure (SMILES): CC(C)S(=O)(=O)c1ccccc1Nc1nc(Nc2ccc(N3CCN(CCOCCNC(=O)CNc4cccc5c4C(=O)N(C4CCC(=O)NC4=O)C5=O)CC3)cc2)ncc1Cl (stereo not shown) [SK.3.91]
- logFC ([4]; experiment wp105): −0.571
- logFC ([4]; experiment wp107): −0.8456
- logFC ([4]; experiment wp133, 4 hr): −0.6321
- logFC ([4]; experiment wp172): −0.7962
- logFC MAP4K3 ([4]; experiment wp105): −0.571
- logFC MAP4K3 ([4]; experiment wp107): −0.8456
- logFC MAP4K3 ([4]; experiment wp133, 4 hr): −0.6321
- logFC MAP4K3 ([4]; experiment wp172): −0.7962
- logFC [5]: −0.8176
- logFC of CDK14 (O94921-1) [5]: −0.8176
- logFC ([2]; experiment wp105): −0.3335
- logFC LATS1 ([2]; experiment wp105): −0.3335
- logFC ([2]; experiment wp107): −0.4609
- logFC LATS1 ([2]; experiment wp107): −0.4609
- logFC ([2]; experiment wp160, 4 hr): −0.3463
- logFC LATS1 ([2]; experiment wp160, 4 hr): −0.3463

Structure (SMILES): CC(C)S(=O)(=O)c1ccccc1Nc1nc(Nc2ccc(N3CCN(CCOCCOCCNC(=O)CNc4cccc5c4C(=O)N(C4CCC(=O)NC4=O)C5=O)CC3)cc2)ncc1Cl (stereo not shown) [TL12.186]
- logFC ([4]; experiment wp131): −0.6275
- logFC ([4]; experiment wp137): −0.3997
- logFC MAP4K3 ([4]; experiment wp131): −0.6275
- logFC MAP4K3 ([4]; experiment wp137): −0.3997
- logFC ([3]; experiment wp131): −0.3954
